Test results published in patent US10945932B2, “Prebiotic oral care compositions containing carboxylic acids” (COLGATE-PALMOLIVE COMPANY, priority 2013, dated 2021).
Where two headings read alike, the source gives them in different places.

Tests used:
[1] = test system: Streptococcus salivarius; assay: Biofilm growth assay in BHI, crystal violet; type: cell-based; conditions: S salivarius
Experimental: (§1) Late exponential growth phase liquid cultures were prepared by transferring the respective bacterium from blood agar plates to BHI and overnight incubation at 37° C. in an anaerobic atmosphere for A. viscosus, V. parvula, F. nucleatum, P. gingivalis, P. intermedia, T. forsythia, A. naeslundii, and C. sputigena, and in a 5% CO2 environment for S. salivarius, S. sanguinis, S. mitis, A. actinomycetemcomitans, S. mutans, and S. gordonii. […] Additionally, for each bacterium tested, a background control, to correct for background staining, was added. This background control contained the bacterium tested and 0.03 weight % chlorhexidine, as an antiseptic. Plates were incubated as previously described. After 48 hrs the supernatant was removed from the wells of the plates. The wells were washed twice with 1×100 μL/PBS (phosphate buffered saline), fixed for 20 minutes with 96% vol. ethanol (96% vol. solution in water) and the biofilm retained at the bottom of the wells was stained with 1 weight % crystal violet (1 weight % solution in water). […] Quantification of the stained biofilm was performed by measuring the absorbance at 630 nm using a Multiskan Ascent microplate reader (Thermo Scientific).

[2] = test system: Streptococcus sanguinis; assay: Biofilm growth assay in BHI, crystal violet; type: cell-based; conditions: S sanguinis
Experimental: as §1

[3] = test system: Tannerella forsythia; assay: Biofilm growth assay in BHI, crystal violet; type: cell-based; conditions: T forsythia
Experimental: as §1

[4] = test system: Veillonella parvula; assay: Biofilm growth assay in BHI, crystal violet; type: cell-based; conditions: V parvula
Experimental: as §1

[5] = test system: Fusobacterium nucleatum; conditions: F nucleatum, BHI
Experimental: (§2) Late exponential growth phase liquid cultures were prepared by transferring the respective bacterium from blood agar plates to BHI and overnight incubation at 37° C. in an anaerobic atmosphere for A. viscosus, V. parvula, F. nucleatum, P. gingivalis, P. intermedia, T forsythia, A. naeslundii, and C. sputigena, and in a 5% CO2 environment for S. salivarius, S. sanguinis, S. mitis, A. actinomycetemcomitans, S. mutans, S. sobrinus and S. gordonii. Overnight cultures were transferred to BHI and adjusted to a concentration of 1×10^7 CFU/ml (colony forming units per ml) by measuring the optical density at 600 nm (OD600) (BioRad SmartSpec 3000). For each strain, 200 μl of the bacterial suspension was added to a 96-well plate containing 20 μl of the respective carboxylic acids. Final concentrations of the carboxylic acids were set to 5, 10, 20 and 25 μmol/ml. […] Plates were incubated as previously described.
(§3) For each combination of bacterium/carboxylic acid, and for each of their respective controls (i.e. the particular bacterium in the nutritionally rich medium with no carboxylic acid), the optical density was measured at 630 nm (OD630) at 0 h, 24 h and 48 h (Thermo Scientific Multiskan Ascent). Additionally, the OD630 for combinations of bacterium/carboxylic acid grown in a 5% CO2 environment were also measured every hour between 0 h and 9 h.
(§4) The experiment was carried out on three different days (thus providing 3 biological replicas) and on each day the experiment was carried out in quadruple (thus providing 4 technical replicas) for each combination of bacterium with carboxylic acid and for each control. For each day and for each combination, the average (mean) of the values obtained (as detailed above) for the four technical replicas was calculated to provide a single value for each combination on each day.

[6] = test system: Porphyromonas gingivalis; conditions: P gingivalis, BHI
Experimental: as §2, §3, §4

[7] = test system: Prevotella intermedia; conditions: P intermedia, BHI
Experimental: as §2, §3, §4

[8] = test system: Streptococcus gordonii; conditions: S gordonii, BHI
Experimental: as §2, §3, §4

[9] = test system: Veillonella parvula; conditions: V parvula, BHI
Experimental: as §2, §3, §4

[10] = test system: Streptococcus mitis; conditions: S mitis, BHI
Experimental: as §2, §3, §4

## O=C(O)CCC(=O)O [Succinic acid, succinic acid]
[1]; 5 μmol/ml
  biofilm growth, OD at 630 nm (crystal violet) at 48 hrs divided by OD of control (control = 1): 3.7553
[1]; 10 μmol/ml
  biofilm growth, OD at 630 nm (crystal violet) at 48 hrs divided by OD of control (control = 1): 1.2358
[1]; 20 μmol/ml
  biofilm growth, OD at 630 nm (crystal violet) at 48 hrs divided by OD of control (control = 1): 0.6125
[1]; 25 μmol/ml
  biofilm growth, OD at 630 nm (crystal violet) at 48 hrs divided by OD of control (control = 1): 1.7869
[2]; 5 μmol/ml
  biofilm growth, OD at 630 nm (crystal violet) at 48 hrs divided by OD of control (control = 1): 3.3955
[2]; 10 μmol/ml
  biofilm growth, OD at 630 nm (crystal violet) at 48 hrs divided by OD of control (control = 1): 2.9778
[2]; 20 μmol/ml
  biofilm growth, OD at 630 nm (crystal violet) at 48 hrs divided by OD of control (control = 1): 1.7748
[2]; 25 μmol/ml
  biofilm growth, OD at 630 nm (crystal violet) at 48 hrs divided by OD of control (control = 1): 1.9952
[3]; 5 μmol/ml
  biofilm growth, OD at 630 nm (crystal violet) at 48 hrs divided by OD of control (control = 1): 0.3223
[3]; 10 μmol/ml
  biofilm growth, OD at 630 nm (crystal violet) at 48 hrs divided by OD of control (control = 1): 0.0000
[3]; 20 μmol/ml
  biofilm growth, OD at 630 nm (crystal violet) at 48 hrs divided by OD of control (control = 1): 0.0000
[3]; 25 μmol/ml
  biofilm growth, OD at 630 nm (crystal violet) at 48 hrs divided by OD of control (control = 1): 0.0000
[4]; 5 μmol/ml
  biofilm growth, OD at 630 nm (crystal violet) at 48 hrs divided by OD of control (control = 1): 0.9059
[4]; 10 μmol/ml
  biofilm growth, OD at 630 nm (crystal violet) at 48 hrs divided by OD of control (control = 1): 1.0118
[4]; 20 μmol/ml
  biofilm growth, OD at 630 nm (crystal violet) at 48 hrs divided by OD of control (control = 1): 1.1681
[4]; 25 μmol/ml
  biofilm growth, OD at 630 nm (crystal violet) at 48 hrs divided by OD of control (control = 1): 1.4334
[5]; 5 μmol/ml
  extent of growth, maximal OD630 over 48 hr divided by maximal OD of control (control = 1): 0.9913
[5]; 10 μmol/ml
  extent of growth, maximal OD630 over 48 hr divided by maximal OD of control (control = 1): 1.0196
[5]; 20 μmol/ml
  extent of growth, maximal OD630 over 48 hr divided by maximal OD of control (control = 1): 0.2006
[5]; 25 μmol/ml
  extent of growth, maximal OD630 over 48 hr divided by maximal OD of control (control = 1): 0.1511
[6]; 5 μmol/ml
  extent of growth, maximal OD630 over 48 hr divided by maximal OD of control (control = 1): 1.0091
[6]; 10 μmol/ml
  extent of growth, maximal OD630 over 48 hr divided by maximal OD of control (control = 1): 0.8129
[6]; 20 μmol/ml
  extent of growth, maximal OD630 over 48 hr divided by maximal OD of control (control = 1): 0.4103
[6]; 25 μmol/ml
  extent of growth, maximal OD630 over 48 hr divided by maximal OD of control (control = 1): 0.4061
[7]; 5 μmol/ml
  extent of growth, maximal OD630 over 48 hr divided by maximal OD of control (control = 1): 0.8288
[7]; 10 μmol/ml
  extent of growth, maximal OD630 over 48 hr divided by maximal OD of control (control = 1): 0.4471
[7]; 20 μmol/ml
  extent of growth, maximal OD630 over 48 hr divided by maximal OD of control (control = 1): 0.0944
[7]; 25 μmol/ml
  extent of growth, maximal OD630 over 48 hr divided by maximal OD of control (control = 1): 0.0921
[8]; 5 μmol/ml
  extent of growth, maximal OD630 over 48 hr divided by maximal OD of control (control = 1): 0.8555
[8]; 10 μmol/ml
  extent of growth, maximal OD630 over 48 hr divided by maximal OD of control (control = 1): 0.7021
[8]; 20 μmol/ml
  extent of growth, maximal OD630 over 48 hr divided by maximal OD of control (control = 1): 0.2928
[8]; 25 μmol/ml
  extent of growth, maximal OD630 over 48 hr divided by maximal OD of control (control = 1): 0.1860
[9]; 5 μmol/ml
  extent of growth, maximal OD630 over 48 hr divided by maximal OD of control (control = 1): 1.1624
[9]; 10 μmol/ml
  extent of growth, maximal OD630 over 48 hr divided by maximal OD of control (control = 1): 1.1922
[9]; 20 μmol/ml
  extent of growth, maximal OD630 over 48 hr divided by maximal OD of control (control = 1): 1.4603
[9]; 25 μmol/ml
  extent of growth, maximal OD630 over 48 hr divided by maximal OD of control (control = 1): 1.3566
[10]; 5 μmol/ml
  extent of growth, maximal OD630 over 48 hr divided by maximal OD of control (control = 1): 0.7273
[10]; 10 μmol/ml
  extent of growth, maximal OD630 over 48 hr divided by maximal OD of control (control = 1): 0.7615
[10]; 20 μmol/ml
  extent of growth, maximal OD630 over 48 hr divided by maximal OD of control (control = 1): 0.4339
[10]; 25 μmol/ml
  extent of growth, maximal OD630 over 48 hr divided by maximal OD of control (control = 1): 0.1591
